Laboratory results as given in patent US6124291A, “Pyrrolo[1,2-a]pyrazine-1,4-dione serine protease inhibitors” (Warner-Lambert Company, priority 1998, dated 2000).

What was measured:
human thrombin = human thrombin (Homo sapiens, UniProt P00734); test: Determination of Thrombin Ki (fluorogenic substrate Tos-Gly-Pro-Arg-AMC); assay type: biochemical; details: 50 mM Tris-HCl pH 7.52 at 37° C., 0.1 M NaCl, 0.1% poly(ethylene glycol) 8000, room temperature
Description: Compounds of the present invention may be prepared for assay by dissolving them in buffer to give solutions ranging in concentrations from 1 to 100 μM. In an assay to determine the inhibitory dissociation constant, Ki, for a given compound, a chromogenic or fluorogenic substrate of thrombin is added to a solution containing a test compound and thrombin; the resulting catalytic activity of the enzyme is spectrophotometrically determined. This assay is well-known to those skilled in the art and is commonly used to determine antithrombotic activity.
The affinity of inhibitors for thrombin was measured according to the procedures described in (DiMaio, et al., J. Biol. Chem., 1990; 265:21698). Inhibition of amidolytic activity of human thrombin was measured fluorometrically using Tos-Gly-Pro-Arg-AMC as a fluorogenic substrate in 50 mM Tris-HCl buffer (pH 7.52 at 37° C.) containing 0.1 M NaCl and 0.1% poly(ethylene glycol) 8000 at room temperature. Buffer substrate and inhibitor were mixed, and the reaction was initiated by adding the enzyme solution. Initial velocities were recorded at several inhibitor and substrate concentrations. Kinetic parameters were determined by fitting the data to a general equation describing enzyme inhibition (Segel, Enzyme Kinetics, Wiley Interscience Publications, 1993). […]

trypsin = target: T1, trypsin (Bos taurus, UniProt P00760); test: Determination of Trypsin IC50 (chromogenic substrate S2222); assay type: biochemical; details: 60 minutes incubation at room temperature
T1 sequence (P00760 24-246): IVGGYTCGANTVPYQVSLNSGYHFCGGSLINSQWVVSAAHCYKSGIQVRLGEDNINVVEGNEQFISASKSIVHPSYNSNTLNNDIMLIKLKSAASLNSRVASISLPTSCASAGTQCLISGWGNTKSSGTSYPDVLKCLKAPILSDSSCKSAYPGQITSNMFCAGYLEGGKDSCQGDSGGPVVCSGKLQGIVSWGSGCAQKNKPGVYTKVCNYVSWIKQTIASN
Description: (§1) The ability of compounds to act as inhibitors of trypsin catalytic activity is assessed by determination of that concentration of test substance that inhibits by 50% (IC50) the ability of trypsin to cleave the chromogenic substrate S2222 (N-Bz-L-Ile-L-Glu-L-Gly-L-Arg-p-nitroanilide.cndot.HCl). Typically, trypsin in 10 mM HEPES, 100 mM NaCl, 0.05% BSA, and 0.1% PEG-8000, and the test substance in DMSO are incubated for 60 minutes at room temperature. To this mixture is added S2222 and the velocity of S2222 hydrolysis measured by observing the intensity of absorbance at 405 nm over 5 minutes.

Factor Xa = Factor Xa (Homo sapiens, UniProt P00742); test: Determination of Factor Xa IC50 (chromogenic substrate S2765); assay type: biochemical; details: 60 minutes incubation at room temperature
Sequence of Factor Xa (P00742 235-488 limits assumed): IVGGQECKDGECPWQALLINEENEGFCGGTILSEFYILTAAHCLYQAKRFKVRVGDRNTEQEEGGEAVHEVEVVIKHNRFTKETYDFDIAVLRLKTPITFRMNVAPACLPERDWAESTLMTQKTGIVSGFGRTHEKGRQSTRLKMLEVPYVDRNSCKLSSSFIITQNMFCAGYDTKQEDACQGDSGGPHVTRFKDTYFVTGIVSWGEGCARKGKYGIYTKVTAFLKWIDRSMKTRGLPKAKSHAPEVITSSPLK
Sequence of Factor Xa (P00742 41-179 limits assumed): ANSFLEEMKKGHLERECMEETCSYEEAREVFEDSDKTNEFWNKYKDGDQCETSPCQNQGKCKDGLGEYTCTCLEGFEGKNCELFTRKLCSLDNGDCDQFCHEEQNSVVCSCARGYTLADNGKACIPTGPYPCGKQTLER
Description: as §1, with “Factor Xa” for “trypsin”, “S2765 (N-CBz-D-Arg-L-Gly-L-Arg-p-nitroanilide.cndot.2 HCl).” for “S2222 (N-Bz-L-Ile-L-Glu-L-Gly-L-Arg-p-nitroanilide.cndot.HCl).”, “PEG-8000” for “PEG-8000,”, “S2765” for “S2222”

carotid artery = test: FeCl3-induced carotid arterial injury model (arterial thrombosis); assay type: in vivo, rat (male Sprague-Dawley); details: rat; IV bolus 0.75 mg/kg then IV infusion 50 μg/kg/min; time to occlusion in drug-treated divided by control; 60 minutes monitoring
Description: The FeCl3-- induced injury to the carotid artery in rats was induced according to the method described by Kurz K. D., Main R. W., Sandusky G. E., Thrombosis Research, 1990; 60:269-280 and Schumacher W. A., et al., J. Pharmacology and Experimental Therapeutics, 1993; 267:1237-1242.
Male, Sprague-Dawley rats (375-410 g) were anesthetized with urethane (1500 mg/kg ip). Animals were laid on a 37° C. heating pad. The carotid artery was exposed through a midline cervical incision. Careful blunt dissection was used to isolate the vessel from the carotid sheath. Using forceps, the artery was lifted to provide sufficient clearance to insert two small pieces of polyethylene tubing (PE-205) underneath it. A temperature probe (Physitemp MT23/3) was placed between one of the pieces of tubing and the artery. Injury was induced by topical application on the carotid artery above the temperature probe of a small disc (3 mm dia.) of Whatman No. 1 filter paper previously dipped in a 35% solution of FeCl3. […] The vessel temperature was monitored for 60 minutes after application of FeCl3 as an indication of blood flow. Vessel temperature changes were recorded on a thermistor (Cole-Palmer Model 08533-41).
The time between the FeCl3 application and the time at which the vessel temperature decreased abruptly (>2.4° C.) was recorded as the time to occlusion of the vessel. […]

Ki (human thrombin): 3 nM
IC50 (trypsin): < 1 nM
IC50 (Factor Xa): 30 nM
Compound: N=C(N)NCCC[C@H](NC(=O)[C@@H]1CC[C@H]2C(=O)N(CCCc3ccccc3)CC(=O)N12)C(=O)c1nccs1 [Example 11, [6S-[6α(R*),8aα]]-1,4-Dioxo-2-(3-phenyl-propyl)-octahydropyrrolo[1,2-a]pyrazine-6-carboxylic acid [4-guanidino-1-(thiazol-2-carbonyl)-butyl]-amide]
Fold Shift in MOT (mean occlusion time) (carotid artery): > 3.3
